The record followed here is patent US4076814A, “Preventive and curative compositions against mycoplasmosis” (Sankyo Company Limited, priority 1975, dated 1978).

In brackets after ≈: the same amount, converted by molar mass. Where a name gives a salt, the structure may show the parent alone.

The test system of experiment [1] is MRL-4 strain of mycoplasma pulmonis. The experiment can be described thus: Curative effect in mice infected with MRL-4 strain of mycoplasma pulmonis by oral administration in feed. It is filed as in vivo. Conditions: 10 days, after one month. As for the experimental part:
Each of the dithiocarbamic acid derivatives as indicated below with Compound No. was added to a feed and administered orally to mice infected artificially with MRL-4 strain of mycoplasma pulmonis. The effectiveness of the treatment was evaluated. Six groups, each group consisting of ten female mice which were negative in the test for mycoplasmosis, were used. After MRL-4 strain of mycoplasma pulmonis was cultured in PPLO agar medium, the colonies of the surface of the medium were diluted with a phosphate buffer solution to prepare a solution containing about 10^9 /ml of mycoplasma. 0.1 ml of the microbe-containing solution was injected intravenously to the tail of each mouse. For consecutive 10 days from the next day of the injection, the mice were fed with a powdery feed containing the active compound at respective concentrations of 0.04, 0.02, 0.01 and 0.005%, respectively. During the experiment period, all the procedures were conducted in a vinyl isolater.
After one month from the starting of the experiment, the presence of arthritis was visually investigated and at the same time the presence of pneumonia was also investigated after dissection. Recovery tests of mycoplasma and general bacteria were conducted using the joints and lungs of host subjects as the testing materials.

In experiment [2] the test system is Mycoplasma gallisepticum. Put plainly: Antimicrobial test, conventional agar plate dilution method, Mycoplasma gallisepticum. It is filed as cell-based. Conditions: for MIC: Mycoplasmoides gallisepticum, read-out: Minimum Inhibitory Concentration, Mycoplasma gallisepticum. From the text:
(§1) ANTIMICROBIAL TEST AGAINST THREE STRAINS OF MYCOPLASMA
(§2) The test was effected by a conventional agar plate dilution method using the indicated strains of mycoplasma. The dithiocarbamic acid derivatives as shown below with Compound Nos. were employed in the test.

In experiment [3] the test system is Mycoplasma pulmonis. Put plainly: Antimicrobial test, conventional agar plate dilution method, Mycoplasma pulmonis. It is filed as cell-based. Conditions: for MIC: Mycoplasma, read-out: Minimum Inhibitory Concentration, Mycoplasma pulmonis.
Text: as §1, §2

For experiment [4], the system named is Mycoplasma hyorhinis. The experiment can be described thus: Antimicrobial test, conventional agar plate dilution method, Mycoplasma hyorhinis. It is filed as cell-based. The settings on record: for MIC: Mycoplasma, read-out: Minimum Inhibitory Concentration, Mycoplasma hyorhinis.
Text: as §1, §2

For `O=C1CCCCC1CSC(=S)N1CCOCC1` (centres unmarked) [Compound No. 12, 2-Oxocyclohexylmethyl 4-morpholinecarbodithioate], the Attack rate arthritis in experiment [1] (0.005% in feed) is given as 6/10; in experiment [1] (0.01% in feed), 4/10; in experiment [1] (0.02% in feed), 1/10; in experiment [1] (0.04% in feed), 0/10. The Attack rate pneumonia in experiment [1] (0.005% in feed), in experiment [1] (0.01% in feed), in experiment [1] (0.02% in feed) and in experiment [1] (0.04% in feed) was 0/10 in each case. In addition, the “Recovery of mycoplasma joint” value in experiment [1] (0.005% in feed) is given as 6/10; in experiment [1] (0.01% in feed), 4/10; in experiment [1] (0.02% in feed), 1/10; in experiment [1] (0.04% in feed), 0/10. The “Recovery of mycoplasma lung” value in experiment [1] (0.005% in feed), in experiment [1] (0.01% in feed), in experiment [1] (0.02% in feed) and in experiment [1] (0.04% in feed) was 0/10 in each case. The MIC was determined as 0.05 µg/mL (≈ 0.183 µM) in experiment [2], 0.2 µg/mL (≈ 0.731 µM) in experiment [3] and 0.39 µg/mL (≈ 1.43 µM) in experiment [4].
As to `CCN(CC)C(=S)SCCC(=O)c1ccccc1` [compound 24, 2-Benzoylethyl diethyldithiocarbamate], the Attack rate arthritis in experiment [1] (0.005% in feed) is listed as 4/10; in experiment [1] (0.01% in feed), 3/10; in experiment [1] (0.02% in feed), 2/10; in experiment [1] (0.04% in feed), 0/10. In addition, the Attack rate pneumonia in experiment [1] (0.005% in feed), in experiment [1] (0.01% in feed), in experiment [1] (0.02% in feed) and in experiment [1] (0.04% in feed) was 0/10 each time. Further, the “Recovery of mycoplasma joint” value in experiment [1] (0.005% in feed) is listed as 4/10; in experiment [1] (0.01% in feed), 3/10; in experiment [1] (0.02% in feed) it was 2/10; in experiment [1] (0.04% in feed), 0/10. For the same molecule, the “Recovery of mycoplasma lung” value in experiment [1] (0.005% in feed), in experiment [1] (0.01% in feed), in experiment [1] (0.02% in feed) and in experiment [1] (0.04% in feed) was 0/10 each time. Also, the MIC in experiment [2] came to 0.05 µg/mL (≈ 0.178 µM); in experiment [3] it was 0.2 µg/mL (≈ 0.711 µM); in experiment [4] it was 0.39 µg/mL (≈ 1.39 µM).
As for `CCCc1cc(CSC(=S)N(C)C)cc(CN(C)C)c1O.Cl` [compound 238, 4-Hydroxy-3-dimethylaminomethyl5-n-propylbenzyl dimethyldithiocarbamate hydrochloride], the MIC in experiment [2], in experiment [3] and in experiment [4] was 0.2 µg/mL throughout.
Regarding `CCC(C)c1cc(CSC(=S)N(C)C)cc(CN(C)C)c1O.Cl` (centres unmarked) [compound 240, 4-Hydroxy-3-dimethylaminomethyl-5-sec-butylbenzyl dimethyldithiocarbamate hydrochloride], the MIC was 0.39 µg/mL in experiment [2], 0.39 µg/mL in experiment [3] and 0.2 µg/mL in experiment [4].
For the molecule `CCN(CC)C(=S)SCc1cc(CN(C)C)c(O)c(C(C)(C)C)c1` [compound 241, 4-Hydroxy-3-dimethylaminomethyl-5-t-butylbenzyl diethyldithiocarbamate], the MIC in experiment [2] worked out at 0.78 µg/mL (≈ 2.12 µM); in experiment [3], 0.39 µg/mL (≈ 1.06 µM); in experiment [4], 0.39 µg/mL (≈ 1.06 µM).
With `CCN(CC)C(=S)SCc1cc(CO)cc(OC)c1O` [compound 242, 2-Hydroxy-3-methoxy-5-hydroxymethylbenzyl diethyldithiocarbamate], the MIC in experiment [2], in experiment [3] and in experiment [4] was 0.1 µg/mL (≈ 0.317 µM) in each case.
Take `CC=Cc1cc(CSC(=S)N(CC)CC)c(O)c(OC)c1` [compound 246, 2-Hydroxy-3-methoxy-5-propenylbenzyl diethyldithiocarbamate]: the MIC came out at 0.39 µg/mL (≈ 1.2 µM) in experiment [2], 0.2 µg/mL (≈ 0.614 µM) in experiment [3] and 0.39 µg/mL (≈ 1.2 µM) in experiment [4].
Consider `Cc1cc(O)c(CSC(=S)N(C)C)cc1CSC(=S)N(C)C` [compound 247, 4-Hydroxy-5-dimethylthiocarbamoylthiomethyl-2-methylbenzyl dimethyldithiocarbamate], for which the MIC in experiment [2] is 0.78 µg/mL (≈ 2.08 µM); in experiment [3], 0.78 µg/mL (≈ 2.08 µM); in experiment [4], 0.39 µg/mL (≈ 1.04 µM).
As for `CCCc1cc(CSC(=S)N(C)C)cc(CSC(=S)N(C)C)c1O` [compound 248, 4-Hydroxy-5-dimethylthiocarbamoylthiomethyl-3-n-propylbenzyl dimethyldithiocarbamate], the MIC in experiment [2] was 0.1 µg/mL (≈ 0.248 µM); in experiment [3] it was 0.1 µg/mL (≈ 0.248 µM); in experiment [4], 0.2 µg/mL (≈ 0.497 µM).
Turning to `CCC(C)c1cc(CSC(=S)N(C)C)cc(CSC(=S)N(C)C)c1O` (centres unmarked) [compound 250, 4-Hydroxy-5-dimethylthiocarbamoylthiomethyl-3-sec-butylbenzyl dimethyldithiocarbamate], the MIC in experiment [2], in experiment [3] and in experiment [4] was 0.2 µg/mL (≈ 0.48 µM) in each case.
With `CN(C)C(=S)SCc1cc(CSC(=S)N(C)C)c(O)c(C(C)(C)C)c1` [compound 251, 2-Hydroxy-5-dimethylthiocarbamoylthiomethyl-3-t-butylbenzyl dimethyldithiocarbamate], the figures for the MIC in experiment [2], in experiment [3] and in experiment [4] were 0.2 µg/mL (≈ 0.48 µM), 0.1 µg/mL (≈ 0.24 µM) and 0.2 µg/mL (≈ 0.48 µM), respectively.
Regarding `CN(C)C(=S)SCc1oc(CO)cc(=O)c1O` [compound 254, 5-Hydroxy-2-hydroxymethyl-4-oxo-4H-pyran-6-ylmethyl dimethyldithiocarbamate], the MIC in experiment [2], in experiment [3] and in experiment [4] was 0.39 µg/mL (≈ 1.42 µM) each time.
Take `CCN(CC)C(=S)SCc1oc(CO)cc(=O)c1O` [compound 255, 5-Hydroxy-2-hydroxymethyl-4-oxo-4H-pyran-6-ylmethyl diethyldithiocarbamate]: the MIC in experiment [2] amounted to 0.05 µg/mL (≈ 0.165 µM); in experiment [3], 0.1 µg/mL (≈ 0.33 µM); in experiment [4], 0.05 µg/mL (≈ 0.165 µM).
`O=c1cc(CO)oc(CSC(=S)N2CCCC2)c1O` [compound 258, 5-Hydroxy-2-hydroxymethyl-4-oxo-4H-pyran-6-ylmethyl-1-pyrrolidinecarbodithioate]: the values for the MIC in experiment [2], in experiment [3] and in experiment [4] were 0.78 µg/mL (≈ 2.59 µM), 0.78 µg/mL (≈ 2.59 µM) and 0.39 µg/mL (≈ 1.29 µM), respectively.
In the case of `O=c1cc(CO)oc(CSC(=S)N2CCCCC2)c1O` [compound 261, 5-Hydroxy-2-hydroxymethyl-4-oxo-4H-pyran-6-ylmethyl-1-piperidinecarbodithioate], the MIC in experiment [2], in experiment [3] and in experiment [4] was 3.13 µg/mL (≈ 9.92 µM) in each case.
For `O=c1cc(CO)oc(CSC(=S)N2CCOCC2)c1O` [compound 262, 5-Hydroxy-2-hydroxymethyl-4-oxo-4H-pyran-6-ylmethyl-4-morpholinecarbodithioate], the results for the MIC in experiment [2], in experiment [3] and in experiment [4] were 0.2 µg/mL (≈ 0.63 µM), 0.78 µg/mL (≈ 2.46 µM) and 0.78 µg/mL (≈ 2.46 µM), respectively.
On to `CN1CCN(C(=S)SCc2oc(CO)cc(=O)c2O)CC1` [compound 263, 5-Hydroxy-2-hydroxymethyl-4-oxo-4H-pyran-6-ylmethyl-4-methyl-1-piperazinecarbodithioate], for which the MIC in experiment [2] was found to be 1.56 µg/mL (≈ 4.72 µM); in experiment [3], 3.13 µg/mL (≈ 9.47 µM); in experiment [4], 3.13 µg/mL (≈ 9.47 µM).
On to `Cc1cc2c(c(O)c1CSC(=S)N(C)C)C1OCC34CCCC(C)(C)C3CCC(C)(O2)C14` (centres unmarked) [compound 265, 16-Dimethylthiocarbamoylthiomethylsiccanin], for which the MIC in experiment [2], in experiment [3] and in experiment [4] was 0.39 µg/mL (≈ 0.82 µM) in each case.
Turning to `CCN(CC)C(=S)SCc1c(C)cc2c(c1O)C1OCC34CCCC(C)(C)C3CCC(C)(O2)C14` (centres unmarked) [compound 266, 16-Diethylthiocarbamoylthiomethylsiccanin], the MIC in experiment [2], in experiment [3] and in experiment [4] was 0.1 µg/mL (≈ 0.199 µM) in each case.
`Cc1cc2c(c(O)c1CSC(=S)N1CCOCC1)C1OCC34CCCC(C)(C)C3CCC(C)(O2)C14` (centres unmarked) [compound 271, 16-(4-Morpholinethiocarbonylthiomethyl)siccanin]: the MIC in experiment [2], in experiment [3] and in experiment [4] was 1.56 µg/mL (≈ 3.01 µM) in each case.
For the molecule `Cc1cc2c(c(O)c1CSC(=S)N1CCN(C)CC1)C1OCC34CCCC(C)(C)C3CCC(C)(O2)C14` (centres unmarked) [compound 272, 16-(4-Methyl-1-piperazinethiocarbonylthiomethyl)-siccanin], the MIC in experiment [2], in experiment [3] and in experiment [4] was 0.39 µg/mL (≈ 0.735 µM) throughout.
In the case of `Cc1cc2c(c(O)c1CSC(=S)N1CCN(C)CC1)C1OCC34CCCC(C)(C)C3CCC(C)(O2)C14` (centres unmarked) [compound 273, 16-(4-Methyl-1-piperazinethiocarbonylthiomethyl)siccanin hydrochloride], in experiment [2] (hydrochloride), the “Minimum Inhibitory Concentration, Mycoplasma gallisepticum” value was found to be 0.78 µg/mL. Also, the “Minimum Inhibitory Concentration, Mycoplasma pulmonis” value in experiment [3] (hydrochloride) amounted to 0.78 µg/mL. Also, the “Minimum Inhibitory Concentration, Mycoplasma hyorhinis” value in experiment [4] (hydrochloride) turned out to be 0.78 µg/mL.
